Test results published in patent US20230000064A1, “OBSESSIVE-COMPULSIVE DISORDER ANIMAL MODEL AND PRODUCTION METHOD THEREOF” (KOREA UNIVERSITY RESEARCH AND BUSINESS FOUNDATION, priority 2019, published 2023).
Entries after “also recorded” stand apart in the source; their conditions may differ.

How the values were obtained:
Type in all cases: in vivo
BLA-DMS neural circuit [1] = experiment: Hole board test in mice with chemogenetically (hM3Dq/CNO) activated BLA-DMS circuit
Protocol: A solution of clozapine N-oxide (CNO; Tocris, Bristol, United Kingdom) in saline was intraperitoneally injected to mice. Taking into account the time it takes for the drug to act, the experiment was started after about 30 minutes. The drug was injected at a dose of 1 mg/kg at the same time every day.
As a control for CNO, saline was used. Saline was also intraperitoneally injected at the same volume and the experiments were conducted in the same condition as for the CNO group.
A square acrylic plate with 9 holes (3 cm in diameter) was made to be 30 cm wide and 30 cm long. A home base was constructed with a material different from the acryl plate. Based on the home base, water was placed on the right end of the acrylic plate, and 10% sucrose was placed on the other side. Afterward, a mouse was placed in the home base and monitored for 1 hour under a video camera. Remaining amounts of sucrose and water were recorded after completion of the test.
In the present disclosure, mice were divided into two groups: saline-administered and CNO-administered groups and subjected to the test at the same time every day for 18 days. After a four-day learning period, the fourth day was used as the base. During this period, the mice located the water and 10% sucrose on the hole board. Saline and CNO were administered to each group for a total of 12 days from the 5th day to the 16th day. On the 17th day, it was observed whether the OCD phenomenon was maintained even in the absence of administration of saline and CNO. Finally, on the 18th day, the mice were measured for cognitive flexibility after switching the positions of water and 10% sucrose. The video between the base and the 18th day (base to day 14) was analyzed. The analysis items included checking behavior (repetitive checking), repetitive nose poking (repetitively inserting the nose into the hole), excessive grooming (excessive washing—hair trimming), and flexibility (cognitive flexibility).
As an analysis method, the video was analyzed with the naked eye through the blind test. Through the blind test, the objectivity of the experiment was secured by preventing the experimenter from knowing about the saline-administered group and the CNO-administered group. A measurement was made of: the frequency of going to water and sucrose for the checking behavior (repetitive checking); the number of actions of inserting the nose into each hole for repetitive nose poking (repeatedly inserting the nose into the hole); the total length of grooming (duration) and the total number of times (frequency) of the start and end of grooming for excessive grooming (excessive washing—hair trimming); and the number of times to go to water and sucrose where the positions of the 18th day (day 14) were reversed, for the flexibility (cognitive flexibility).
AAV-retro Cre virus, which can make a retrograde infection, was injected to the DMS while AAV-DIO-hM3Dq, which specifically expresses Cre, was injected into the BLA. That is, advantage was taken of the principle that when the retrograde virus from the DMS expresses Cre in the neuron cell body (soma) of the BLA, the AAV-DIO-hM3Dq virus is induced to express hM3Dq thereat only in the presence of Cre. hM3Dq can activate neurons in cooperation with the membrane protein GPCR (G-protein-coupled receptors) upon stimulation with the drug CNO (clozapine n-oxide), whereby the specific activation of the BLA-DMS neural circuit can be achieved. After injecting different viruses into these two areas, it takes more than 4 weeks for the viruses to show their activities.
After 4 weeks, the learning process was performed for the first 4 days on the hole board without injection of CNO (clozapine n-oxide). During this process, the mice identify and remember the location of the water and 10% sucrose. The BLA-DMS circuit was continuously activated by injecting CNO (1 mg/kg) at the same time every day for 12 days, using the behavioral values of the 4th day as a reference. […]

BLA-DMS neural circuit [2] = experiment: Hoarding test (two connected cages) in mice with activated BLA-DMS circuit; details: day 13 evening to day 14 morning, no administration; vs saline-administered group; FIGS. 12-14
Source text: A tool was manufactured by connecting two cages, with a passage in the middle thereof. The cages each have a dimension of width 25 cm×length 20 cm×height 12 cm (Jeung Do PNP). For the passage, a PVC cylinder with a dimension of diameter 5 cm and length 19 cm was used. A hole with a diameter of 5 cm was drilled 1 cm above the bottom of each cage, and a sill was installed on the PVC so that the length of the passage was 9.5 cm when a PVC cylinder was inserted into the holes. Mice were placed one per cage. In order for the mouse to recognize one cage as a home cage, beddings were placed on only one cage and the other cage was left in the default state, and the passageway to the opposite side of the home cage was blocked for one day. Then the next evening, the food in the home cage was removed, foods and toys were placed on the other cage, and the blocked passage was opened. At this time, water was placed in the home cage. Differences between the groups were compared in how many food pellets and toys were brought to the home cage on the morning of the last day of the experiment. Quantification was made of the brought weight for food and the brought number for toys. […]

BLA-DMS neural circuit [3] = experiment: Observation of hairs around the mouth after the tests; details: 20 days after the last test day; vs saline-administered mice; FIG. 15
Source text: Additionally, after 20 days from the last day, it was observed that the hairs around the mouth of the Clozapine n-oxide (CNO)-administered mice fell out, compared to the saline-administered mice, indicating a phenotype caused by excessive grooming (see FIG. 15).

[4] = CNO 1 mg/kg i.p. daily vs saline, repeated 1-way ANOVA, FIG. 8

## C[N+]1([O-])CCN(C2=Nc3cc(Cl)ccc3Nc3ccccc32)CC1 [CNO, clozapine N-oxide]
BLA-DMS neural circuit [1]; CNO 1 mg/kg i.p. daily for 12 days vs saline control, repeated 1-way ANOVA, FIG. 6
  checking frequency of heading toward 10% sucrose: significantly increased
BLA-DMS neural circuit [1]; CNO 1 mg/kg i.p. daily for 12 days vs saline-administered group, FIG. 6
  frequency of heading toward water (checking behavior): no difference
BLA-DMS neural circuit [1]; CNO 1 mg/kg i.p. daily vs saline, repeated 1-way ANOVA, FIG. 7
  repetitive nose poking frequency: greatly increased
BLA-DMS neural circuit [1]; [4]
  grooming frequency: significantly increased
  grooming time (duration): significantly increased
BLA-DMS neural circuit [1]; CNO vs saline-administered group, FIG. 9
  amount of 10% sucrose drank: no difference
BLA-DMS neural circuit [1]; day 13, saline and CNO not administered
  obsessive-compulsive disorder (checking and nose poking) on day 13 without administration: maintained
BLA-DMS neural circuit [1]; day 14 (18th day), vs saline-administered group, Student t-test, FIG. 10
  cognitive flexibility (times going to water and sucrose after positions swapped): significantly lower
BLA-DMS neural circuit [2]
  hoarding of food pellets brought to home cage: significantly increased
  hoarding of toys brought to home cage: significantly increased
BLA-DMS neural circuit [3]
  hairs around the mouth (phenotype caused by excessive grooming): fell out; also recorded: disappear
